Measurements as given in US20080171716A1, “NUCLEIC ACID MODULATION OF TOLL-LIKE RECEPTOR-MEDIATED IMMUNE STIMULATION” (Protiva Biotherapeutics, Inc., priority 2006, published 2008).

Legend:
TLR9 = target: T1, TLR9 (Mus musculus, UniProt Q9EQU3); experiment: CpG ODN (TLR9 agonist)-induced IFN-α in murine Flt3L-derived dendritic cells; type: cell-based; conditions: murine Flt3L cultures; phosphodiester backbone; formulated in lipid nanoparticles
T1 construct: endogenous in cells; host or cells: Flt3L-derived dendritic cells cultured from bone marrow of female Balb/C mice
T1 sequence (Q9EQU3 26-1032): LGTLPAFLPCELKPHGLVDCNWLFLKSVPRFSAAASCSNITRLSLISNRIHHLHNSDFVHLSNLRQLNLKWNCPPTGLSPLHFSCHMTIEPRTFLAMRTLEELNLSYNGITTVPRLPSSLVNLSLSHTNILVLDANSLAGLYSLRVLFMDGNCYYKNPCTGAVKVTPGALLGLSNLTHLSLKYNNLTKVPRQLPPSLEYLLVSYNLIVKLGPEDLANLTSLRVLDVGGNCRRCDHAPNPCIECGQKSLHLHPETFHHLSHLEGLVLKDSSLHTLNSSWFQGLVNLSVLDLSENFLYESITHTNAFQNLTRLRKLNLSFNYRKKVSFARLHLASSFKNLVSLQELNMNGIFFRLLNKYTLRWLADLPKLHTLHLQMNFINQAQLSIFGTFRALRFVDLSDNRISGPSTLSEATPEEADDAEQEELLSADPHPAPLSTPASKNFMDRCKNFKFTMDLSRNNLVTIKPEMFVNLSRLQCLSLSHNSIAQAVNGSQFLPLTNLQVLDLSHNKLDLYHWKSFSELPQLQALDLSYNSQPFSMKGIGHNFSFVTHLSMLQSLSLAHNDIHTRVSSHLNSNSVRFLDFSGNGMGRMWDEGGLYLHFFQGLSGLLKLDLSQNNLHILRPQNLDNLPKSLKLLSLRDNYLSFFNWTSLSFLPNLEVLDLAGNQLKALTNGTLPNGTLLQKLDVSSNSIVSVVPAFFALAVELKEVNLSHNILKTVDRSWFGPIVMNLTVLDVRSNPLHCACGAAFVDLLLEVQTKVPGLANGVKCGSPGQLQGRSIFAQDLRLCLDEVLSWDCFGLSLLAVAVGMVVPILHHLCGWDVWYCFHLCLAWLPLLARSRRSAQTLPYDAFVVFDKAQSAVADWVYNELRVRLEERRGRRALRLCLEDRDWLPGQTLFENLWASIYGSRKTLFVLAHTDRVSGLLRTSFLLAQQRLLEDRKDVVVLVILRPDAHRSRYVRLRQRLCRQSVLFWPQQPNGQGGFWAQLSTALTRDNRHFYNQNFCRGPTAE
Description: (§1) Lipid Encapsulation of RNA and ODN. RNA or ODN were encapsulated in liposomes by a process of spontaneous vesicle formation as described in Judge et al., supra, and Jeffs et al., Pharm. Res., 22:362-372 (2005).
Flt3L-derived dendritic cells (DC) were generated as described in Gilliet et al., J. Exp. Med., 195:953-958 (2002), using 100 ng/ml murine Flt3-ligand (Peprotech) supplemented media. Femurs and tibiae of female Balb/C mice were isolated and rinsed in sterile PBS. The ends of bones were cut and marrow harvested in complete media (RPMI 1640, 10% heat inactivated FBS, 1% penicillin/streptomycin, 2 mM L-glutamine, 1 mM sodium pyruvate, 25 mM HEPES, 50 μM 2-mercaptoethanol). Bone marrow cells were passed through a 70 μm strainer and centrifuged at 1000 rpm for 7 min. and resuspended in complete media supplemented with 100 ng/ml murine Flt3L to 2×10^6 cells/ml. 2 ml of cells were seeded in 6-well plates and 1 ml fresh media was added every two to three days. On day 9 of culture, non-adherent cells were washed in complete media and plated into 96-well plates at concentrations ranging from 0.5 to 2.5×10^5 cells/well.
(§2) Loxoribine (InvivoGen; San Diego, Calif.), polyIC (Sigma-Aldrich; St. Louis, Mo.), and formulated nucleic acids were diluted in PBS and added to either human PBMC or Flt3L DC cultures. Cells were incubated 24 h at 37° C. before supernatants were assayed for cytokines by ELISA.
(§3) Cytokine ELISA. All cytokines were quantified using sandwich ELISA kits according to the manufacturer's instructions. These were mouse and human IFN-α (PBL Biomedical; Piscataway, N.J.) and IL-6 (eBioscience; San Diego, Calif.).

TLR7 [1] = target: T2, TLR7 (Mus musculus, UniProt P58681); experiment: In vivo inhibition of loxoribine-mediated cytokine induction in mice; parameters: from tissue; host or cells: whole animal: female Balb/C mice, plasma cytokines; species or system Balb/C mice; conditions: 100 μg formulated RNA IV 2 h prior to 1 mg Lox
T2 sequence (P58681 27-1050): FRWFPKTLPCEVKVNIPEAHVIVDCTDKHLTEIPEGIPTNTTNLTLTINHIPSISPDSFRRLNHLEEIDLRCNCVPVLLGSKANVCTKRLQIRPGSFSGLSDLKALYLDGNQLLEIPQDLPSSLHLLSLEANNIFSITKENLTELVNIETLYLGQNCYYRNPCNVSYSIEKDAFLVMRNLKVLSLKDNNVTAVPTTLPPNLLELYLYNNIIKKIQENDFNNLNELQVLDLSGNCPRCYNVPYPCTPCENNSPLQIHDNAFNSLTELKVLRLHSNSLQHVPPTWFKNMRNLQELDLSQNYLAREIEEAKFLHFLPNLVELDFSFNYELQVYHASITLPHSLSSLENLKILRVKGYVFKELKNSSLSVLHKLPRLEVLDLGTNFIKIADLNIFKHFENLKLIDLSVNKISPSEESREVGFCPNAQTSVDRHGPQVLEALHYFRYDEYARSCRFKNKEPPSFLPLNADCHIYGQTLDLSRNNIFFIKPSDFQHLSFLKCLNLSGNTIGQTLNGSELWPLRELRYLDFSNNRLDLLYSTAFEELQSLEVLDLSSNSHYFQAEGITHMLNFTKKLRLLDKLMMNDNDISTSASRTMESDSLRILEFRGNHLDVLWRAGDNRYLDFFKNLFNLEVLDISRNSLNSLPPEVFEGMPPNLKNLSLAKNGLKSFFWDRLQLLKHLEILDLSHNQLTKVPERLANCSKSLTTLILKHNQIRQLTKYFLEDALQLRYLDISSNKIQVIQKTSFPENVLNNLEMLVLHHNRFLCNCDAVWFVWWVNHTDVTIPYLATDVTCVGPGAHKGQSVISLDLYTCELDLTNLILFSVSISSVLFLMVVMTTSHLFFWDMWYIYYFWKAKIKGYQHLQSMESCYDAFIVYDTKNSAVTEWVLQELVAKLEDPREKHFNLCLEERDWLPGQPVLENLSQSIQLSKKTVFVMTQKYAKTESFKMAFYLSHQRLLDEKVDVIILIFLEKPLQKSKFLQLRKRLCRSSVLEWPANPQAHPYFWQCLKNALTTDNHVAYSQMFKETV
Description: as §3
(§4) In Vivo Cytokine Induction. Animal studies were performed at Protiva Biotherapeutics in accordance with Canadian Council on Animal Care guidelines and following protocol approval by the local Animal Care and Use Committee. Female Balb/C mice were subjected to a two-week quarantine and acclimation period prior to use at six to eight-weeks of age. RNA formulations were administered by standard injection in the lateral tail vein in 0.2 ml PBS. Six hours after injection, blood was collected by cardiac puncture and processed as plasma for cytokine analysis. In experiments studying inhibition of cytokine induction by loxoribine, formulated RNA (100 μg) was administered IV 2 h prior to IV administration of 1 mg loxoribine in PBS. Blood was collected by cardiac puncture 2 h after administration of loxoribine and processed as plasma for cytokine analysis.

TLR7/8 = experiment: Cytokine induction in human PBMCs by immunostimulatory RNA, alone or co-formulated with modified ssRNA in the same SNALP/lipid particle; type: cell-based; conditions: human PBMC cultures; lipid-formulated RNA alone; doses 0.1 to 3 μg/ml
Description: All RNA molecules used in this study were heated at 90° C. for 3 min. and then placed at 37° C. for 60 min. Non-denaturing PAGE analysis on a 20% polyacrylamide gel was performed to confirm that ssRNA molecules were intact and that no duplexes had formed upon heating. The RNA molecules were encapsulated in a SNALP formulation comprising PEG-cDMA:DLinDMA:cholesterol:DSPC in a 2:40:48:10 mol % ratio (2:40 SNALP), prepared using a syringe press process.
Fresh human peripheral blood mononuclear cells (PBMCs) were isolated and seeded at about 3×10^5 cells/well in a total volume of 180 μl. Next, 20 μl of the appropriate SNALP diluted in PBS or 10 μl of naked TLR agonist were added to the PBMCs. For time course experiments, PBMCs were pretreated with UmodS ssRNA or a control and the appropriate naked TLR agonist was added at 0, 0.5, or 2 hours after pretreatment. When the SNALP and naked TLR agonist were added separately, the SNALP was added first followed by the naked TLR agonist. At t=24 hr., the cell supernatant was harvested and IFN-α and/or IL-6 levels were determined using ELISA.
The ssRNA molecules used in this study were heated at 90° C. for 3 min. and then placed at 37° C. for 60 min to disrupt any potential secondary structure. Non-denaturing PAGE analysis on a 20% polyacrylamide gel was performed to confirm that ssRNA molecules were intact and that no duplexes had formed upon heating. siRNA duplexes were prepared by annealing equimolar concentrations of two deprotected and desalted ssRNA oligonucleotides using standard procedures. Formation of annealed siRNA duplexes was confirmed by non-denaturing PAGE analysis on a 20% polyacrylamide gel. The RNA molecules were encapsulated in a 2:40 SNALP formulation prepared using a syringe press process.
Fresh human peripheral blood mononuclear cells (PBMCs) were isolated and seeded at about 3×10^5 cells/well in a total volume of 180 μl. Next, 20 μl of the appropriate SNALP diluted in PBS were added to the PBMCs. At t=24 hr., the cell supernatant was harvested and IFN-α and/or IL-6 levels were determined using an enzyme-linked immunosorbent assay (ELISA). For example, IFN-α and IL-6 levels can be measured using a sandwich ELISA kit available from PBL Biomedical (Piscataway, N.J.) and eBioscience (San Diego, Calif.), respectively.
as §1
Cell Isolation and Culture. Human PBMCs were isolated from whole blood of healthy donors by a standard Ficoll-Hypaque density centrifugation. Blood was diluted 1:1 with PBS, layered onto Ficoll-Paque Plus, and centrifuged at 1600 RPM for 30 min. PBMCs were washed in PBS twice followed by resuspension in complete media (RPMI 1640, 10% heat inactivated FBS, 2 mM L-glutamine, and 1% penicillin/streptomycin). PBMCs were plated at 2.5×10^5 cells/well in 96 well plates for cytokine induction assays.
as §2, §3

TLR7 [2] = target: T2, TLR7; experiment: In vivo cytokine induction by formulated ssRNA in mice; parameters: from tissue; host or cells: whole animal: female Balb/C mice, plasma cytokines; species or system Balb/C mice; conditions: IV, plasma 6 h after administration
Description: as §3, §4

“ODN 6295: CpG Type A ODN, phosphodiester: TAACGTTGAGGGGCAT (DNA, all phosphodiester, methylation of C not given here; formulated in lipid nanoparticles)” was tested, and the “immunostimulatory activity of the ODN alone” value (shortened to “immunostimulatory activity”) (TLR9) was “highly immunostimulatory”.

In the case of “ODN M362: CpG Type C ODN, phosphodiester: TCGTCGTCGTTCGAACGACGTTGAT (DNA, all phosphodiester, methylation of C not given here; formulated in lipid nanoparticles)”, the “immunostimulatory activity” value (TLR9) is reported as “highly immunostimulatory”.

For “GFP-S: native non-stimulatory ssRNA: GGCUACGUCCAGGAGCGCAUU (RNA, backbone not given here) [reference compound]”, the “response to loxoribine (plasma IFN-α and IL-6) after pre-treatment” value (TLR7 [1]) was “robust response”.

For “βgal-AS: immunostimulatory ssRNA: AAAUCGCUGAUUUGUGUAGUU (chemistry not given here) [reference compound]”, the “IFN-α production induced by the RNA alone” value (TLR7/8) was “induced high levels of IFN-α”, the “plasma IFN-α after administration of the formulated RNA alone” value (TLR7 [2]) was “significant elevations” and the “plasma IL-6 after administration of the formulated RNA alone” value (TLR7 [2]) was “significant elevations”.

For ODN 1826, the “immunostimulatory activity” value (TLR9) was “highly immunostimulatory”.
